# How the values were obtained:
# [1] = tested on: 42-MG-BA (Glioblastoma); assay: Bliss excess, mean over the matrix (fraction); higher = more synergy
# In short: (§1)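 Cell lines grown in DMEM/F12 or RPMI with 10% FBS were plated in 1536-well plates and held 24 hours at 37°C, 5% CO2 before 72 hours of exposure to two-drug dose matrices, with DMSO typically at 0.2%. CellTiter-Glo 2.0 luminescence gave viability, which was converted to inhibition. Vehicle wells were set to 0 and blank wells to 1. Combination Emax is the second-highest inhibition in the matrix, and Bliss excess is the observed combination effect minus the expected EA + EB − EA·EB, where EA and EB are the single-agent effects.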
# [2] = tested on: AGS (Gastric Carcinoma); assay: as above
# In short: as §1
# [3] = tested on: B-CPAP (Thyroid Gland Carcinoma); assay: as above
# In short: as §1
# [4] = tested on: COLO-205 (Colorectal Carcinoma); assay: as above
# In short: as §1
# [5] = tested on: DEL (T-Cell Non-Hodgkin's Lymphoma); assay: as above
# In short: as §1
# [6] = tested on: Daoy (Other Solid Carcinomas); assay: as above
# In short: as §1
# [7] = tested on: EC-GI-10 (Esophageal Squamous Cell Carcinoma); assay: as above
# In short: as §1
# [8] = tested on: ES4 (Ewing's Sarcoma); assay: as above
# In short: as §1
# [9] = tested on: HCC1806 (Breast Carcinoma); assay: as above
# In short: as §1
# [10] = tested on: HuP-T4 (Pancreatic Carcinoma); assay: as above
# In short: as §1
# [11] = tested on: KP-1N (Pancreatic Carcinoma); assay: as above
# In short: as §1
# [12] = tested on: KYSE-520 (Esophageal Squamous Cell Carcinoma); assay: as above
# In short: as §1
# [13] = tested on: LNCaP-Clone-FGC (Prostate Carcinoma); assay: as above
# In short: as §1
# [14] = tested on: LU-135 (Small Cell Lung Carcinoma); assay: as above
# In short: as §1
# [15] = tested on: MDA-MB-361 (Breast Carcinoma); assay: as above
# In short: as §1
# [16] = tested on: MFE-296 (Endometrial Carcinoma); assay: as above
# In short: as §1
# [17] = tested on: NOS-1 (Osteosarcoma); assay: as above
# In short: as §1
# [18] = tested on: OVCA420 (Ovarian Carcinoma); assay: as above
# In short: as §1
# [19] = tested on: RC-K8 (B-Cell Non-Hodgkin's Lymphoma); assay: as above
# In short: as §1
# [20] = tested on: SK-ES-1 (Ewing's Sarcoma); assay: as above
# In short: as §1
# [21] = tested on: SNU-5 (Gastric Carcinoma); assay: as above
# In short: as §1
# [22] = tested on: TCCSUP (Bladder Carcinoma); assay: as above
# In short: as §1
# [23] = tested on: 42-MG-BA (Glioblastoma); assay: combination Emax (second highest fraction inhibited in the dose matrix, 72 h); higher = more inhibition; extreme values may be limits of the assay
# In short: as §1
# [24] = tested on: AGS (Gastric Carcinoma); assay: as above
# In short: as §1
# [25] = tested on: B-CPAP (Thyroid Gland Carcinoma); assay: as above
# In short: as §1
# [26] = tested on: COLO-205 (Colorectal Carcinoma); assay: as above
# In short: as §1
# [27] = tested on: DEL (T-Cell Non-Hodgkin's Lymphoma); assay: as above
# In short: as §1
# [28] = tested on: Daoy (Other Solid Carcinomas); assay: as above
# In short: as §1
# [29] = tested on: EC-GI-10 (Esophageal Squamous Cell Carcinoma); assay: as above
# In short: as §1
# [30] = tested on: ES4 (Ewing's Sarcoma); assay: as above
# In short: as §1
# [31] = tested on: HCC1806 (Breast Carcinoma); assay: as above
# In short: as §1
# [32] = tested on: HuP-T4 (Pancreatic Carcinoma); assay: as above
# In short: as §1
# [33] = tested on: KP-1N (Pancreatic Carcinoma); assay: as above
# In short: as §1
# [34] = tested on: KYSE-520 (Esophageal Squamous Cell Carcinoma); assay: as above
# In short: as §1
# [35] = tested on: LNCaP-Clone-FGC (Prostate Carcinoma); assay: as above
# In short: as §1
# [36] = tested on: LU-135 (Small Cell Lung Carcinoma); assay: as above
# In short: as §1
# [37] = tested on: MDA-MB-361 (Breast Carcinoma); assay: as above
# In short: as §1
# [38] = tested on: MFE-296 (Endometrial Carcinoma); assay: as above
# In short: as §1
# [39] = tested on: NOS-1 (Osteosarcoma); assay: as above
# In short: as §1
# [40] = tested on: OVCA420 (Ovarian Carcinoma); assay: as above
# In short: as §1
# [41] = tested on: RC-K8 (B-Cell Non-Hodgkin's Lymphoma); assay: as above
# In short: as §1
# [42] = tested on: SK-ES-1 (Ewing's Sarcoma); assay: as above
# In short: as §1
# [43] = tested on: SNU-5 (Gastric Carcinoma); assay: as above
# In short: as §1
# [44] = tested on: TCCSUP (Bladder Carcinoma); assay: as above
# In short: as §1
# 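Throughout, for Bliss excess, mean over the matrix: after 72 h of two-drug dosing.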
smiles,measurement,setting,value
"CC(=O)c1c(C)c2cnc(Nc3ccc(N4CCNCC4)cn3)nc2n(C2CCCC2)c1=O [Palbociclib] + CN(CC[C@H](CSC1=CC=CC=C1)NC2=C(C=C(C=C2)S(=O)(=O)NC(=O)C3=CC=C(C=C3)N4CCC(CC4)[C@H](C5=CC=CC=C5C6=CC=C(C=C6)Cl)O)S(=O)(=O)C(F)(F)F)CCO [AZD4320] (first compound max 10 µM, 7x7, partner max 1 µM)",Bliss excess,[1],-0.061
same,Bliss excess,[2],-0.008
same,Bliss excess,[3],-0.0241
same,Bliss excess,[4],-0.0497
same,Bliss excess,[5],-0.0135
same,Bliss excess,[6],0.0118
same,Bliss excess,[7],-0.0715
same,Bliss excess,[8],-0.113
same,Bliss excess,[9],-0.0398
same,Bliss excess,[10],-0.0026
same,Bliss excess,[11],-0.0305
same,Bliss excess,[12],-0.0557
same,Bliss excess,[13],-0.0902
same,Bliss excess,[14],0.0316
same,Bliss excess,[15],-0.0078
same,Bliss excess,[16],-0.0227
same,Bliss excess,[17],0.0414
same,Bliss excess,[18],-0.0591
same,Bliss excess,[19],0.0351
same,Bliss excess,[20],0.0334
same,Bliss excess,[21],-0.0446
same,Bliss excess,[22],-0.0607
same,combination Emax,[23],0.511
same,combination Emax,[24],0.823
same,combination Emax,[25],0.59
same,combination Emax,[26],0.868
same,combination Emax,[27],0.916
same,combination Emax,[28],0.368
same,combination Emax,[29],0.493
same,combination Emax,[30],0.485
same,combination Emax,[31],0.442
same,combination Emax,[32],0.208
same,combination Emax,[33],0.27
same,combination Emax,[34],0.477
same,combination Emax,[35],0.534
same,combination Emax,[36],1
same,combination Emax,[37],0.185
same,combination Emax,[38],0.293
same,combination Emax,[39],0.952
same,combination Emax,[40],0.21
same,combination Emax,[41],0.838
same,combination Emax,[42],0.956
same,combination Emax,[43],0.334
same,combination Emax,[44],0.364
